Tests used:
[1] = tested on: cancer cells in the lesion; test: DNA damage and apoptosis in tumor lesions (LCM, caspase 3 cleavage IHC); type: in vivo, mice
Description: The signals of Caspase 3 cleaved […] in the lesion of each group of mice were in sharp contrast. Scale bar, 200 μm.
To investigate mechanisms directly supporting this senescence-associated pattern with expression and reversal of SASP in MIT-administered mice, we dissected tumors in animals treated with both drugs 7 days after the first PCC1 administration, and the time point of 7 days after administration was selected mainly because drug-resistant clones had not yet formed in cancer cells in the lesion at this time. […] As supporting evidence, when PCC1 was applied during treatment, caspase 3 cleavage activity was increased, which was a typical hallmark of apoptosis (FIG. 29).

[2] = tested on: senescent PSC27 cells; test: RNA-seq / GSEA expression profile of BLEO-induced senescent PSC27 cells; type: cell-based, human
Protocol: Whole-transcriptome sequencing was performed on the primary human prostate stromal cell line PSC27 under different treatment conditions. Total RNA samples were obtained from stromal cells. Their integrity was verified by Bioanalyzer 2100 (Agilent), RNA was sequenced by Illumina HiSeq X10, and gene expression levels were quantified by software package rsem (https://deweylab.github.io/rsem/). Briefly, rRNA was depleted from RNA samples with the RiboMinus Eukaryote Kit (Qiagen, Valencia, Calif., USA); and according to the manufacturer's instructions, TruSeq Stranded Total RNA Preparation Kits (Illumina, San Diego, Calif.), USA) was used to construct a strand-specific RNA-seq library before deep sequencing.
Paired-end transcriptomic reads were mapped to a reference genome (GRCh38/hg38), and reference-annotation was performed from Gencode v27 using the Bowtie tool. Duplicate reads were identified using the picard Tools (1.98) script to mark duplicates (https://github.com/broadinstitute/picard), and only non-duplicate reads were retained. Reference splice junctions were provided by reference transcriptome (Ensembl Build 73). FPKM values were calculated with Cufflinks, and Cufflinks maximum likelihood estimation function was used to call differential gene expression. Genes with significant changes in expression were defined by false discovery rate (FDR)-corrected P-values<0.05, and only Ensembl Genes 73 with status “Known” and biotype “coding” were used for downstream analysis.
Next, Trim Galore (v0.3.0) (http://www.bioinformatics.babraham.ac.uk/projects/trim_galore/) was used to trim the reads, while the quality assessment was carried out by using FastQC (v0.10.0) (http://www.bioinformatics.bb src.ac.uk/projects/fastqc/). Subsequently, a preliminary analysis of the raw data was perform on a free online platform, Majorbio I-Sanger Cloud Platform (www.i-sanger.com), by using DAVID bioinformatics platform (https://david.ncifcrf.gov/) and Ingenuity Pathways Analysis (IPA) program (http://www.ingenuity.com/index.html), the raw data were deposited in the NCBI Gene Expression Omnibus (GEO) database with access code GSE156448.
Based on the data obtained from the preliminary analysis of RNA-seq, analyzed and compared each differentially expressed significant gene, the genes were sorted using the “wald statistics” obtained from DESeq2, GSEA was performed on the sorting lists of all planning gene sets available in MSigDB (http://software.broadinstitute.org/gsea/msigdb). DESeq2 independent filtering was based on the average of normalized read counts to select genes with very low expression levels. The GSEA signature of SASP was as described in our previous publication (Zhang et al., 2018a).

[3] = tested on: PSC27 cells; test: CCK8 cell viability of proliferating and senescent PSC27 under increasing PCC1; type: cell-based, human
Protocol: P value at each PCC1 concentration is the significant difference after comparison between CTRL and BLEO groups. **, P<0.01; ***, P<0.001; ****, P<0.0001.
Pharmacodynamic analysis was conducted on a natural product library (BY-HEALTH) with a total of 41 components, most of which were medicinal plant extracts and had anti-senescence potential. Each product was diluted to a 96-well plate according to a certain concentration gradient, and the density was 5000 cells per well. The medium uses DMEM, and the working concentration of natural product (or compound) is generally controlled at 1 μM to 1 mM. After 3-7 days of drug treatment, cell proliferation was measured with CCK-8 Cell Counting Kit (based on WST-8 principle, Vazyme), and cell apoptosis activity was determined with Caspase 3/7 Activity Kit (Promega).

[4] = tested on: SASP factors; test: LCM and qRT-PCR of SASP factors in mouse lesions; type: in vivo, mice; details: MIT/PCC1 vs MIT, stromal cells
Protocol: The stromal cells and cancer cells were specifically separated by LCM technology, total RNA was prepared and used for SASP expression detection. A P>0.05; *, P<0.05; **, P<0.01; ***, P<0.001.
In a preclinical treatment trial, subcutaneously transplanted mice were fed with a standard experimental diet, after 2 weeks chemotherapy drugs mitoxantrone (MIT, dose: 0.2 mg/kg) and/or procyanidin C1 (PCC1) (500 μl, dose: 10 mg/kg) via intraperitoneal administration. The time points were: the former was administrated on the first day of the 3rd, 5th and 7th weeks, and the latter was administrated on the first day of the 5th and 7th weeks. A total of 3 cycles of MIT administration were carried out throughout the course of treatment, and each cycle lasted for 2 weeks. After the course of treatment, mouse tumors were harvested for volume measurement and histological analysis. Each mouse cumulatively received 0.6 mg/kg body weight of MIT and 30 mg/kg body weight of PCC1. In order to cause systemic expression of SASP factor induced by chemotherapy, MIT was administered to mice through intravenous infusion according to the above steps and sequence, but the dose was reduced to 0.1 mg/kg body weight/each time (the cumulative dose of MIT received in the whole course of treatment was 0.3 mg/kg body weight) to reduce drug-related toxicity. […]

[5] = BLEO/PCC1 vs BLEO group, fold change 2.0, P<0.01

Oc1cc(O)c2c(c1)O[C@H](c1ccc(O)c(O)c1)[C@H](O)[C@H]2c1c(O)cc(O)c2c1O[C@H](c1ccc(O)c(O)c1)[C@H](O)[C@H]2c1c(O)cc(O)c2c1O[C@H](c1ccc(O)c(O)c1)[C@H](O)C2 [PCC1, procyanidin C1]
indices of DNA damage or apoptosis ([1]; PCC1 administered to MIT-treated animals): significantly enhanced
caspase 3 cleavage activity ([1]; PCC1 applied during MIT treatment): increased
degree of DNA damage and apoptosis ([1]; single agent vs placebo, 7 days after first PCC1 administration): could not induce DNA damage or cause apoptosis
number of genes significantly down-regulated [2, 5]: 4406 genes
number of genes up-regulated [2, 5]: 2766 genes
expression of SASP factors in senescent cells after treatment ([2]; RNA-seq heatmap): generally decreased
GSEA molecular signatures of SASP expression or NF-κB activation ([2]; senescent cells after PCC1): significant repression
survival of proliferating cells ([3]; proliferating PSC27, 200 μM PCC1): not significantly reduced
percentage of surviving senescent cells ([3]; senescent PSC27, 200 μM PCC1): approximately 10%
concentration from which significant death of senescent cells is induced ([3]; senescent vs control proliferating cells, CCK8): 50 µM
MIT-induced SASP expression change upon PCC1 [4]: largely reversed
